Reference: patent US11066409B2, “Bicyclic nitrogen-containing heterocyclic derivatives and pharmaceutical composition comprising the same” (Shionogi & Co., Ltd., priority 2016, dated 2021)

Biological target: human P2X7 receptor (Homo sapiens (Human), UniProt Q99572, R270H)
Assay: Evaluation of a human P2X7 receptor inhibitory activity (Yo-Pro uptake, BzATP stimulation, FLIPR TETRA)
Format: cell-based
Settings: 1321N1 cells stably expressing human P2X7 receptor, Yo-Pro fluorescence
Description: Evaluation of a human P2X7 receptor inhibitory activity Stably expressing cell line (1321N1 cell transfected with the human P2X7 receptor gene (GenBank accession number NM_002562.5 including T606C and G952A SNP)) was used. The cells were seeded in a 384-well microtiter plate at a concentration of 8000 cells/well and cultured in the medium (10% fetal bovine serum, 25 mM HEPES, 1% penicillin and streptomycin in DMEM) for one day at 37° C. under 5% carbon dioxide atmosphere. After replacing with 20 μL of the HBSS buffer (20 mM HEPES, 55.6 mM D-glucose, 1× HBSS(−), pH7.4-7.5), 15 μL of 17.3 μM Yo-Pro solution in the HBSS buffer was added. The plate was placed in high-throughput cellular screening system FLIPR TETRA (Molecullar Devices, LLC.) and 15 μL of 130 μM BzATP solution in the HBSS buffer was added. Measurement of fluorescence intensity by FLIPR TETRA was started. After eight minutes, 15 μL of DMSO solutions containing different concentrations of the compound of the present invention as prepared by dilution with the HBSS buffer were dispensed to each well through the built-in automatic dispenser, and the measurement of fluorescence intensity was continued for 20 minutes. The maximum fluorescence intensity without the compound of the present invention is calculated as 0% inhibition and the maximum fluorescence intensity when the reference compound was added is calculated as 100% inhibition. Changing values of fluorescence intensity by the compound of the present invention were calculated by difference between maximum and minimum fluorescence intensity for 20 minutes. Inhibition ratios (%) were calculated from the following equation:
[formula] IC50 was calculated using logistic approximation.
As for IC50 value, value to below 10 nmol/L is represented as “A”, value from 10 nmol/L to below 100 nmol/L is represented as “B”, value from 100 nmol/L to below 500 nmol/L is represented as “C”, and value from 500 nmol/L to below 1 μmol/L is represented as “D”.

Sequence of human P2X7 receptor (Q99572 whole entry R270H): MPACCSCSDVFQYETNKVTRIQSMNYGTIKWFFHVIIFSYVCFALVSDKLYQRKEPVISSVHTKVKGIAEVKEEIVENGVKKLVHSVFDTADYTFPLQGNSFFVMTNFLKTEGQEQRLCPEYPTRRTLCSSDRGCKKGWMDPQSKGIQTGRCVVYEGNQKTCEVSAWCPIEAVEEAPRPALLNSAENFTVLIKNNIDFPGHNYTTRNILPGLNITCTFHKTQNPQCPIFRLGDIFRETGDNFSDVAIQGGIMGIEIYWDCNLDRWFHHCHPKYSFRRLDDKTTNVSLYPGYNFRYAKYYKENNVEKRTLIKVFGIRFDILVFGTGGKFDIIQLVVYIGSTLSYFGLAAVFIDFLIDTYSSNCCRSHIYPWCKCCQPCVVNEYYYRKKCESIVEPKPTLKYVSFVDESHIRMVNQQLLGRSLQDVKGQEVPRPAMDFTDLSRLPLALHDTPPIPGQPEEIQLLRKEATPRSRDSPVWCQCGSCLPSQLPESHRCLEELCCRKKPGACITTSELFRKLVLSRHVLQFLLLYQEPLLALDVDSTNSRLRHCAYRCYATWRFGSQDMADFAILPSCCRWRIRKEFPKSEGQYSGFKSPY

| SMILES | IC50 | IC50 (class symbols) |
| --- | --- | --- |
| Cc1c(Cl)cccc1Nc1nc(=O)cc2n1C(c1ccccc1)COC2 (single isomer, unassigned) [Compound I-0003] | 1.8 nM |  |
| O=c1cc2n(c(Nc3cccc4ncccc34)n1)C(c1ccccc1)CO2 (centres unmarked) [Compound I-0001] | 16 nM |  |
| Cc1c(Cl)cccc1Nc1nc(=O)cc2n1C(c1ccccc1)CO2 (centres unmarked) [Compound I-0002] |  | < 10 nM |
| Cc1ccccc1Nc1nc(=O)cc2n1C(c1ccccc1)CCC2 (centres unmarked) [Compound I-0004] | 37 nM |  |
| Cc1c(Cl)cccc1Nc1nc(=O)cc2n1C(c1ccccc1)CCC2 (centres unmarked) [Compound I-0005] |  | 10 to 100 nM |
| Cc1c(Cl)cccc1Nc1nc(=O)cc2n1C(c1ccccc1)CCO2 (centres unmarked) [Compound I-0006] |  | 10 to 100 nM |
| Cc1c(Cl)cccc1Nc1nc(=O)cc2n1C(c1ccccc1)CC2 (centres unmarked) [Compound I-0007] |  | < 10 nM |
| Cc1c(Cl)cccc1Nc1nc(=O)cc2n1C(c1cccc(Cl)c1)CC2 (centres unmarked) [Compound I-0008] |  | < 10 nM |
| COc1c2n(c(Nc3cccc(Cl)c3C)nc1=O)C(c1ccccc1)CCO2 (centres unmarked) [Compound I-0009] | 22 nM |  |
| COc1cc(C)c(Nc2nc(=O)cc3n2C(c2ccccc2)CC3)cc1OC (centres unmarked) [Compound I-0010] |  | < 10 nM |
| Cc1cc(Nc2nc(=O)cc3n2C(c2ccccc2)CC3)c(C)cc1Cl (centres unmarked) [Compound I-0011] |  | < 10 nM |
| Cc1cc(Nc2nc(=O)cc3n2C(c2ccc(F)c(Cl)c2)CC3)c(C)cc1Cl (centres unmarked) [Compound I-0012] |  | < 10 nM |
| COc1cc(C)c(Nc2nc(=O)cc3n2C(c2ccc(F)c(Cl)c2)CC3)cc1OC (centres unmarked) [Compound I-0013] |  | < 10 nM |
| COc1ccc(Nc2nc(=O)cc3n2C(c2ccccc2)CC3)c(C)c1 (centres unmarked) [Compound I-0014] |  | < 10 nM |
| Cc1ccccc1Nc1nc(=O)cc2n1C(c1ccccc1)CC2 (centres unmarked) [Compound I-0015] |  | 10 to 100 nM |
| COc1ccc(C)c(Nc2nc(=O)cc3n2C(c2ccccc2)CC3)c1 (centres unmarked) [Compound I-0016] |  | 10 to 100 nM |
| COc1cc(C)c(Nc2nc(=O)cc3n2C(c2ccc(F)cc2)CC3)cc1OC (centres unmarked) [Compound I-0017] |  | 10 to 100 nM |
| COc1cc(C)c(Nc2nc(=O)cc3n2C(c2cccc(F)c2)CC3)cc1OC (centres unmarked) [Compound I-0018] |  | 10 to 100 nM |
| COc1ccc(Nc2nc(=O)cc3n2C(c2ccccc2)CC3)cc1OC (centres unmarked) [Compound I-0019] |  | < 10 nM |
| COc1cc(C)c(Nc2nc(=O)cc3n2C(c2ccccc2)CC3)cc1C (centres unmarked) [Compound I-0020] |  | < 10 nM |
| COc1cc(C)c(Nc2nc(=O)cc3n2C(c2cc(F)c(F)c(F)c2)CC3)cc1OC (centres unmarked) [Compound I-0021] |  | 10 to 100 nM |
| COc1cc(Nc2nc(=O)cc3n2C(c2ccccc2)CC3)c(C)cc1F (centres unmarked) [Compound I-0022] |  | < 10 nM |

| SMILES | IC50 | IC50 (class symbols) |
| --- | --- | --- |
| COc1ccc(Nc2nc(=O)cc3n2C(c2ccc(F)cc2)CC3)c(C)c1 (centres unmarked) [Compound I-0023] |  | < 10 nM |
| COc1cc(C)c(Nc2nc(=O)cc3n2C(c2ccccc2)CC3)cc1F (centres unmarked) [Compound I-0024] |  | 10 to 100 nM |
| COc1cc(C)c(Nc2nc(=O)cc3n2C(c2ccc(F)c(F)c2)CC3)cc1OC (centres unmarked) [Compound I-0025] |  | 10 to 100 nM |
| Cc1nc2cc(C)c(Nc3nc(=O)cc4n3C(c3ccc(F)cc3)CC4)cc2s1 (centres unmarked) [Compound I-0026] |  | < 10 nM |
| COc1cc(Nc2nc(=O)cc3n2C(c2ccccc2)CC3)c(C)cc1Cl (centres unmarked) [Compound I-0027] |  | < 10 nM |
| COc1cc(C)c(Nc2nc(=O)cc3n2C(c2ccccc2)CC3)cc1Cl (centres unmarked) [Compound I-0028] |  | < 10 nM |
| Cc1nc2cc(C)c(Nc3nc(=O)cc4n3[C@H](c3ccccc3)CC4)cc2s1 [Compound I-0029] |  | < 10 nM |
| COc1cc(C)c(Nc2nc(=O)cc3n2C(c2ccccc2)CC3)cn1 (centres unmarked) [Compound I-0030] |  | 100 to 500 nM |
| COc1cc(C)c(Nc2nc(=O)c(OC)c3n2C(c2ccccc2)CC3)cc1C (centres unmarked) [Compound I-0031] |  | 10 to 100 nM |
| COc1c2n(c(Nc3cc4sc(C)nc4cc3C)nc1=O)C(c1ccccc1)CC2 (centres unmarked) [Compound I-0032] | 16 nM |  |
| COc1cc(Nc2nc(=O)cc3n2C(c2ccc(F)cc2)CC3)c(C)cc1Cl (centres unmarked) [Compound I-0033] |  | 10 to 100 nM |
| COc1ccc(Nc2nc(=O)cc3n2C(c2ccccc2)CC3)c(C)n1 (centres unmarked) [Compound I-0034] |  | 10 to 100 nM |
| COc1cc(Nc2nc(=O)cc3n2C(c2ccccc2)CC3)c(C)cn1 (centres unmarked) [Compound I-0035] |  | 100 to 500 nM |
| COc1c2n(c(Nc3cc4sc(C)nc4cc3C)nc1=O)C(c1ccc(F)cc1)CC2 (centres unmarked) [Compound I-0036] |  | 10 to 100 nM |
| COc1ccc(Nc2nc(=O)cc3n2C(c2ccc(F)c(Cl)c2)CC3)c(C)c1 (centres unmarked) [Compound I-0037] |  | < 10 nM |
| COc1ccc(Nc2nc(=O)cc3n2C(c2cc(F)cc(F)c2)CC3)c(C)c1 (centres unmarked) [Compound I-0038] |  | < 10 nM |
| CCc1cc(Nc2nc(=O)cc3n2C(c2ccccc2)CC3)c(C)cc1OC (centres unmarked) [Compound I-0039] |  | < 10 nM |
| Cc1cc2c(cc1Nc1nc(=O)cc3n1C(c1ccccc1)CC3)COC2 (centres unmarked) [Compound I-0040] |  | 10 to 100 nM |
| COc1ccc(Nc2nc(=O)cc3n2C(c2ccc(F)c(F)c2)CC3)c(C)c1 (centres unmarked) [Compound I-0041] |  | < 10 nM |
| COc1ccc(Nc2nc(=O)cc3n2C(c2cc(F)c(F)c(F)c2)CC3)c(C)c1 (centres unmarked) [Compound I-0042] |  | < 10 nM |
| COc1nc(C)c(Nc2nc(=O)cc3n2C(c2ccccc2)CC3)cc1C (centres unmarked) [Compound I-0043] |  | < 10 nM |
| COc1cc(Nc2nc(=O)c(OC)c3n2C(c2ccccc2)CC3)c(C)cc1Cl (centres unmarked) [Compound I-0044] |  | 10 to 100 nM |

| SMILES | IC50 | IC50 (class symbols) |
| --- | --- | --- |
| COc1cc(Nc2nc(=O)c(OC)c3n2C(c2ccccc2)CC3)c(C)cc1F (centres unmarked) [Compound I-0045] |  | 10 to 100 nM |
| COc1ccc(Nc2nc(=O)c(F)c3n2C(c2ccccc2)CC3)c(C)c1 (centres unmarked) [Compound I-0046] |  | 10 to 100 nM |
| COc1ccc(Nc2nc(=O)cc3n2C(c2cc(F)cc(F)c2)CC3)c(C)n1 (centres unmarked) [Compound I-0047] |  | 10 to 100 nM |
| COc1ccc(Nc2nc(=O)cc3n2C(c2cc(F)c(F)c(F)c2)CC3)c(C)n1 (centres unmarked) [Compound I-0048] |  | 10 to 100 nM |
| COc1ccc(Nc2nc(=O)cc3n2C(c2cccc(F)c2)CC3)c(C)c1 (centres unmarked) [Compound I-0049] |  | < 10 nM |
| COc1ccc(Nc2nc(=O)cc3n2C(c2cccc(Cl)c2)CC3)c(C)c1 (centres unmarked) [Compound I-0050] |  | < 10 nM |
| COc1nc(C)c(Nc2nc(=O)cc3n2C(c2cc(F)cc(F)c2)CC3)cc1C (centres unmarked) [Compound I-0051] |  | 10 to 100 nM |
| COc1ccc(Nc2nc(=O)c(OC)c3n2C(c2ccccc2)CC3)c(C)c1 (centres unmarked) [Compound I-0052] |  | 10 to 100 nM |
| Cc1nc2cc(C)c(/N=c3\[nH]c(=O)cc4n3C(c3cc(F)cc(F)c3)CC4)cc2s1 (centres unmarked) [Compound I-0053] |  | 10 to 100 nM |
| Cc1nc2cc(C)c(/N=c3\[nH]c(=O)c(F)c4n3C(c3ccc(F)cc3)CC4)cc2s1 (centres unmarked) [Compound I-0054] |  | < 10 nM |
| CCOc1ccc(Nc2nc(=O)cc3n2C(c2cc(F)cc(F)c2)CC3)c(C)n1 (centres unmarked) [Compound I-0055] |  | 10 to 100 nM |
| Cc1cc(OC(F)F)ccc1/N=c1\[nH]c(=O)cc2n1C(c1cc(F)cc(F)c1)CC2 (centres unmarked) [Compound I-0056] |  | 10 to 100 nM |
| Cc1cc(OC(F)F)ccc1/N=c1\[nH]c(=O)c(F)c2n1C(c1ccc(F)cc1F)CC2 (centres unmarked) [Compound I-0057] |  | 10 to 100 nM |
| Cc1nc2cc(C)c(Nc3nc(=O)c(F)c4n3C(c3ccc(F)cc3F)CC4)cc2s1 (centres unmarked) [Compound I-0058] |  | < 10 nM |
| CCc1nc(OC)ccc1Nc1nc(=O)cc2n1C(c1cc(F)cc(F)c1)CC2 (centres unmarked) [Compound I-0059] | 11 nM | 10 to 100 nM |
| COc1ccc(C)c(/N=c2\[nH]c(=O)cc3n2C(c2cc(F)cc(F)c2)CC3)c1 (centres unmarked) [Compound I-0061] |  | 10 to 100 nM |
| COc1cc(/N=c2\[nH]c(=O)c(F)c3n2C(c2ccc(F)cc2F)CC3)c(C)cc1F (centres unmarked) [Compound I-0062] |  | 10 to 100 nM |
| COc1cc(/N=c2\[nH]c(=O)cc3n2C(c2cc(F)cc(F)c2)CC3)c(C)cc1F (centres unmarked) [Compound I-0063] |  | 10 to 100 nM |
| COc1ccc(Nc2nc(=O)c(F)c3n2C(c2ccc(F)cc2F)CC3)c(C)c1 (centres unmarked) [Compound I-0064] |  | 10 to 100 nM |
| Cc1cc(OC(F)F)c(C)cc1/N=c1\[nH]c(=O)cc2n1C(c1ccccc1)CC2 (centres unmarked) [Compound I-0065] |  | < 10 nM |
